Results as given in the supplement of paper PMC10627819.

Experiments:
[1] = tested on: S. pneumoniae D39V; assay: fitness (endpoint OD595 vs no drug) (fraction); higher = more growth
Procedure, shortened: (§1)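 Fitness was measured as bacterial growth in 384-well plates inoculated at OD595 0.01 (30 µl, or 55 µl for S. pneumoniae). Media were TSB, LB Lennox or CY, at 37 °C. OD595 was read every 30 min for 14 h and background-subtracted against the first reading. Fitness is OD595 at the transition into stationary phase divided by the robust mean of no-drug control wells, capped at 1.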

[2] = tested on: S. aureus DSM 20231; assay: as above
Procedure, shortened: as §1

[3] = tested on: B. subtilis 168; assay: as above
Procedure, shortened: as §1

[4] = tested on: S. pneumoniae D39V; assay: Bliss interaction score (quartile over a dose matrix) (fitness difference); higher = more antagonism (negative = synergy)
Procedure, shortened: (§2)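 Each OD595 reading at entry into stationary phase was scaled to the robust mean of the untreated wells on its plate, with a ceiling of 1. These ratios define fitness, and single-drug fitness was inferred from combinations. The Bliss score compares observed fitness with the product-based expectation and is reported as quartiles across all replicate types, technical, biological and donor/recipient.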

[5] = tested on: S. aureus DSM 20231; assay: as above
Procedure, shortened: as §2

[6] = tested on: S. aureus Newman; assay: as above
Procedure, shortened: as §2

[7] = tested on: B. subtilis 168; assay: as above
Procedure, shortened: as §2
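For Bliss interaction score (quartile over a dose matrix) in this document: first quartile when negative (synergy) and third quartile when positive (antagonism).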
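For fitness (endpoint OD595 vs no drug) in this document: OD595 on entry to stationary phase over no-drug wells; at most 1.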

CC(=O)NC[C@H]1CN(c2ccc(N3CCOCC3)c(F)c2)C(=O)O1 [Linezolid] + Cc1cc(NS(=O)(=O)c2ccc(N)cc2)no1 [Sulfamethoxazol]
fitness
Details | first compound 0.105 µg/mL | first compound 0.125 µg/mL | first compound 0.21 µg/mL | first compound 0.25 µg/mL | first compound 0.42 µg/mL | first compound 0.5 µg/mL
[1], partner 1 µg/mL | 0.774 | – | 0.688 | – | 0.463 | –
[1], partner 2 µg/mL | 0.772 | – | 0.71 | – | 0.48 | –
[1], partner 4 µg/mL | 0.821 | – | 0.729 | – | 0.48 | –
[2], partner 1 µg/mL | – | 0.844 | – | 0.55 | – | 0.167
[2], partner 2 µg/mL | – | 0.865 | – | 0.533 | – | 0.161
[2], partner 4 µg/mL | – | 0.852 | – | 0.557 | – | 0.186
[3], partner 1 µg/mL | – | 0.606 | – | 0.2 | – | 0.0228
[3], partner 2 µg/mL | – | 0.525 | – | 0.13 | – | 0.0265
[3], partner 4 µg/mL | – | 0.515 | – | 0.0743 | – | 0.0275

fitness, one replicate
Details | partner 0.5 µg/mL | partner 1 µg/mL | partner 2 µg/mL | partner 4 µg/mL
[1], first compound 0.2 µg/mL | – | 0.777 | 0.817 | 0.726
[1], first compound 0.4 µg/mL | – | 0.368 | 0.674 | 0.661
[1], first compound 0.8 µg/mL | – | 0.348 | 0.427 | 0.397
[2], first compound 1 µg/mL | – | 0.0364 | 0.0289 | 0.0207
[3], first compound 0.0625 µg/mL | – | 0.94 | 0.895 | 0.828
[3], first compound 0.125 µg/mL | 0.858 | – | – | –
[3], first compound 0.25 µg/mL | 0.446 | – | – | –
[3], first compound 0.5 µg/mL | 0.0399 | – | – | –

Details | Bliss interaction score
[4] | -0.0972
[5] | -0.03
[6] | 0.0723
[7] | -0.0478

CC(=O)NC[C@H]1CN(c2ccc(N3CCOCC3)c(F)c2)C(=O)O1 [Linezolid] + Cc1ncc([N+](=O)[O-])n1CCO [Metronidazole]
Details | fitness
[1], first compound 0.105 µg/mL, partner 1.25 µg/mL | 0.866
[1], first compound 0.105 µg/mL, partner 2.5 µg/mL | 0.877
[1], first compound 0.105 µg/mL, partner 5 µg/mL | 0.841
[1], first compound 0.2 µg/mL, partner 1.073 µg/mL | 0.832
[1], first compound 0.2 µg/mL, partner 2.145 µg/mL | 0.804
[1], first compound 0.2 µg/mL, partner 4.29 µg/mL | 0.817
[1], first compound 0.21 µg/mL, partner 1.25 µg/mL | 0.776
[1], first compound 0.21 µg/mL, partner 2.5 µg/mL | 0.78
[1], first compound 0.21 µg/mL, partner 5 µg/mL | 0.753
[1], first compound 0.4 µg/mL, partner 1.073 µg/mL | 0.741
[1], first compound 0.4 µg/mL, partner 2.145 µg/mL | 0.77
[1], first compound 0.4 µg/mL, partner 4.29 µg/mL | 0.714
[1], first compound 0.42 µg/mL, partner 1.25 µg/mL | 0.663
[1], first compound 0.42 µg/mL, partner 2.5 µg/mL | 0.646
[1], first compound 0.42 µg/mL, partner 5 µg/mL | 0.63
[1], first compound 0.8 µg/mL, partner 2.145 µg/mL | 0.445
[1], first compound 0.8 µg/mL, partner 4.29 µg/mL | 0.424
[2], first compound 0.125 µg/mL, partner 0.625 µg/mL | 0.947
[2], first compound 0.125 µg/mL, partner 1.25 µg/mL | 0.94
[2], first compound 0.125 µg/mL, partner 2.5 µg/mL | 0.942
[2], first compound 0.25 µg/mL, partner 0.625 µg/mL | 0.621
[2], first compound 0.25 µg/mL, partner 1.25 µg/mL | 0.723
[3], first compound 0.125 µg/mL, partner 0.625 µg/mL | 0.648
[3], first compound 0.125 µg/mL, partner 1.25 µg/mL | 0.607
[3], first compound 0.125 µg/mL, partner 2.5 µg/mL | 0.597
[3], first compound 0.25 µg/mL, partner 0.625 µg/mL | 0.0733
[3], first compound 0.25 µg/mL, partner 1.25 µg/mL | 0.0982
[3], first compound 0.25 µg/mL, partner 2.5 µg/mL | 0.105
[3], first compound 0.5 µg/mL, partner 0.625 µg/mL | 0.0494
[3], first compound 0.5 µg/mL, partner 1.25 µg/mL | 0.0531
[3], first compound 0.5 µg/mL, partner 2.5 µg/mL | 0.0511

fitness, one replicate
Details | partner 0.625 µg/mL | partner 1.25 µg/mL | partner 2.5 µg/mL
[2], first compound 1 µg/mL | 0.0445 | 0.0462 | 0.042
[3], first compound 0.0625 µg/mL | 0.86 | 0.895 | 0.875

Details | Bliss interaction score
[4] | 0.143
[5] | 0.111
[6] | 0.0844
[7] | 0.103
